{"source": "ChEMBL document CHEMBL1201862", "about": "“PubChem BioAssay data set” (2004)", "key": {"[1]": {"molecular_target": "DNA topoisomerase (Yersinia pestis, UniProt A0A2S9PM60)", "sequence (A0A2S9PM60 whole entry)": "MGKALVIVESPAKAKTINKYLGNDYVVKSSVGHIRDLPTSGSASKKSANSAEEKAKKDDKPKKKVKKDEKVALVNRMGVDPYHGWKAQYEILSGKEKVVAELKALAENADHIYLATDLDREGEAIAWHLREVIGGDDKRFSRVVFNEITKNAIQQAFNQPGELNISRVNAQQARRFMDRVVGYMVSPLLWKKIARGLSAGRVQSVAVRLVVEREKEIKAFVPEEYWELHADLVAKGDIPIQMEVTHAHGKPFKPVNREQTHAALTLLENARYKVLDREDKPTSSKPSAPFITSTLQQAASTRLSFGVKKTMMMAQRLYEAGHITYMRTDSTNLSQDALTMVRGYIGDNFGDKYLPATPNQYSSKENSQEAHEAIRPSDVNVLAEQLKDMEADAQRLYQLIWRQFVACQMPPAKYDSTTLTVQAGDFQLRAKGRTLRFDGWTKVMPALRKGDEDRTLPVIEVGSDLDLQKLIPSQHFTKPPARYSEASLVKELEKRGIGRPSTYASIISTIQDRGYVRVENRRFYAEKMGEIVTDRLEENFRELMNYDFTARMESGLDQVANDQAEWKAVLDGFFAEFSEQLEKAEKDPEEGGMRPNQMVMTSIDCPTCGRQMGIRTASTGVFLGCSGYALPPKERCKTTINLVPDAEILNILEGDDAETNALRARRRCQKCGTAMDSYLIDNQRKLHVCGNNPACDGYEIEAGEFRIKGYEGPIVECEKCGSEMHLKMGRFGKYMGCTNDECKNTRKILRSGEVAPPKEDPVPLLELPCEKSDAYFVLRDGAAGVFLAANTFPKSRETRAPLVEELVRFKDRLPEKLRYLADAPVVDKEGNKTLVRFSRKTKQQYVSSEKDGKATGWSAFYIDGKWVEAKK", "experiment": "Y. pestis Topo-I inhibitors, cleavage product readout, dose response, biochemical, cherry-pick (AID 588525)"}, "[2]": {"molecular_target": "G-protein coupled receptor 55 (Homo sapiens, UniProt Q9Y2T6)", "sequence (Q9Y2T6 whole entry)": "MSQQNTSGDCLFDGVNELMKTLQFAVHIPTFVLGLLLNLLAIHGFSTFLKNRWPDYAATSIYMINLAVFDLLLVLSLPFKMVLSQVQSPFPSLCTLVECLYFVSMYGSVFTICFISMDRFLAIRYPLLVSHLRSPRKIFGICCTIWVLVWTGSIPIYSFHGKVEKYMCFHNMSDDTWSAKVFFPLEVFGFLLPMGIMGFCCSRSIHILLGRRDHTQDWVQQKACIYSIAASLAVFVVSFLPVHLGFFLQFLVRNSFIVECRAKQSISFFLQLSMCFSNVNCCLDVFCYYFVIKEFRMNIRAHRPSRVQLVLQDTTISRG", "experiment": "GPR55 agonists via beta-arrestin recruitment, primary screen, imaging, U2OS cells, beta-arrestin-GFP redistribution (AID 1961)", "format": "functional"}, "[3]": {"molecular_target": "T1, Acyl-homoserine lactone acylase PvdQ (Pseudomonas aeruginosa (strain LESB58), UniProt Q9I194)", "T1 sequence (Q9I194 whole entry)": "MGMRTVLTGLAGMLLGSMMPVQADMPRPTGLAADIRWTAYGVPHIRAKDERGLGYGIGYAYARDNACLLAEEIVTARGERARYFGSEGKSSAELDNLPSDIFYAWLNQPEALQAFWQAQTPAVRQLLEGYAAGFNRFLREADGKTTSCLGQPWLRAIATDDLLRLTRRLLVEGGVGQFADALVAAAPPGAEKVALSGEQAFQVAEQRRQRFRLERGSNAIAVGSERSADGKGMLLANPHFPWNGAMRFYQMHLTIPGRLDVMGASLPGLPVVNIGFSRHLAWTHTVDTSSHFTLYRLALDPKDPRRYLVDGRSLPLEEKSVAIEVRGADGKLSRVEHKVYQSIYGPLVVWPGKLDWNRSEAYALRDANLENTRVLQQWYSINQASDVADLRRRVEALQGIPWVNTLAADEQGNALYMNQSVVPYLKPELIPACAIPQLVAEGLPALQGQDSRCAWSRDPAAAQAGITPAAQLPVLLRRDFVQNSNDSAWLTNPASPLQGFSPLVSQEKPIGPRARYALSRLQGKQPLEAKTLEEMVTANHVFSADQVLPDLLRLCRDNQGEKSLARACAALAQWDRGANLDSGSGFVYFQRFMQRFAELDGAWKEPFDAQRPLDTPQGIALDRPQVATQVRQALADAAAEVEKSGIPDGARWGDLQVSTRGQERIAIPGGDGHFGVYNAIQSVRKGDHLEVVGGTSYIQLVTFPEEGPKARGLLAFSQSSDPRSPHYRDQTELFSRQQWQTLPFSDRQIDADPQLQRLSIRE", "experiment": "P. aeruginosa PvdQ acylase inhibitors, dose response, biochemical, fluorescence, plate reader and imaging, cherry-picks (AID 493231)"}, "[4]": {"molecular_target": "Neurotensin receptor type 1 (Homo sapiens, UniProt P30989)", "sequence (P30989 whole entry)": "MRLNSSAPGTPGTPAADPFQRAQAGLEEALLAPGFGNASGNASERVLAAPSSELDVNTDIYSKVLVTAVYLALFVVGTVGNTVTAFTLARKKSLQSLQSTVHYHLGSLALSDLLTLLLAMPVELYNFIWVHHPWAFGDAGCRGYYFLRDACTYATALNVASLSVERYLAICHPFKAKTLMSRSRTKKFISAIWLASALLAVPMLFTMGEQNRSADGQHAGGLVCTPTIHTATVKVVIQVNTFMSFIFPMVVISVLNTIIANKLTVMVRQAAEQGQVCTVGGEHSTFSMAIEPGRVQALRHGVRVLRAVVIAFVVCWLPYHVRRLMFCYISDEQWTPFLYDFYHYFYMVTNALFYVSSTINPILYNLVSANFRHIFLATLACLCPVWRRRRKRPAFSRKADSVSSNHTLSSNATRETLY", "format": "functional"}, "[5]": {"test_system": "HeLa", "experiment": "HeLa cell cytotoxicity, dose response, cytotoxicity control, 48 h, plate reader, cherry-picks (AID 504942)", "format": "functional, cell-based", "settings": "Homo sapiens"}, "[6]": {"molecular_target": "T2, Hepatocyte nuclear factor 4-alpha (Homo sapiens, UniProt P41235)", "T2 sequence (P41235 whole entry)": "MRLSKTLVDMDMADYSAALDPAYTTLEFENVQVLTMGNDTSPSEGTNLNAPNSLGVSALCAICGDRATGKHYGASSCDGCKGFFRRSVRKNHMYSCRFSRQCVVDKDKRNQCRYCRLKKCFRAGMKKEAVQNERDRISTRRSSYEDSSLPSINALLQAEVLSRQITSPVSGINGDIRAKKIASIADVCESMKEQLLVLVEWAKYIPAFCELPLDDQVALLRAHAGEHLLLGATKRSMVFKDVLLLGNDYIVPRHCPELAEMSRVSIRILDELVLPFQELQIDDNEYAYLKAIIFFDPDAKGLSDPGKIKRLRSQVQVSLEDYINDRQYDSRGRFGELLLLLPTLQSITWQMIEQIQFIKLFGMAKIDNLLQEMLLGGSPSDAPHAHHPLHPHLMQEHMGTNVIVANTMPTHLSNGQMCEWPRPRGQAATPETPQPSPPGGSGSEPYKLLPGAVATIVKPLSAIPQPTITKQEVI", "format": "functional, cell-based"}}, "note": "The source made the active and inactive calls.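 Wherever IC50 is given: biochemical luminescence-based dose-response counterscreen measuring inhibition of HNF4 dimerization, run alongside a screen for blockers of ABHD5–perilipin-5 interaction; split luciferase complementation of HNF4 fusion proteins in cell lysate measuring dimerization.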", "data": [{"smiles": "CC(C)(C)c1ccc(OCCn2nc(C(=O)O)c3ccccc3c2=O)cc1", "values": [{"measurement": "AC50", "setting": "[1]", "value": "9.12 µM (active)"}]}, {"smiles": "O=CC1=C(c2ccccc2)Oc2ccccc2O1", "values": [{"measurement": "EC50", "setting": "[2]", "value": "2.28 µM (active)"}, {"measurement": "AC50", "setting": "[3]", "value": "2.14 µM (active)"}, {"measurement": "EC50", "setting": "[4]", "value": "16 µM (active)"}, {"measurement": "AC50", "setting": "[5]", "value": "23.9 µM (active)"}, {"measurement": "IC50", "setting": "[6]", "value": "10.4 µM (inactive)"}]}]}
